IC50 data for 14 compounds are collected here from ChEMBL document CHEMBL4190346, “Structure-based design, synthesis, and biological evaluation of withaferin A-analogues as potent apoptotic inducers” (Eur J Med Chem, 2017).

Assay [1] relates to Vero. The assay is described as follows: Cytotoxicity against African green monkey Vero cells assessed as reduction in cell viability using compound addition to cell culture cells in log phase of growth and incubated for 48 hrs by MTT assay. The class given is cell-based, Chlorocebus sabaeus. Particulars: Chlorocebus sabaeus, Vero, 48 h; read-out: IC50. (Tetrazolium dyes change colour on reduction, which living cells bring about.)

Assay [2] relates to HeLa. In words: Cytotoxicity against human HeLa cells assessed as reduction in cell viability using compound addition to cell culture cells in log phase of growth and incubated for 48 hrs by MTT assay. The class given is functional, cell-based. The note with it: Homo sapiens, HeLa, 48 h; read-out: IC50.
Assay [3] has as its system MCF7. The assay is described as follows: Cytotoxicity against human MCF7 cells assessed as reduction in cell viability using compound addition to cell culture cells in lag phase of growth and incubated for 48 hrs by MTT assay. The class given is functional, cell-based. Particulars: Homo sapiens, MCF7, 48 h; read-out: IC50.
Assay [4] concerns HeLa. The assay is described as follows: Cytotoxicity against human HeLa cells assessed as reduction in cell viability using compound addition to cell culture cells in lag phase of growth and incubated for 48 hrs by MTT assay. The class given is functional, cell-based. Particulars: Homo sapiens, HeLa, 48 h; read-out: IC50.
Assay [5] has as its system A549. In words: Cytotoxicity against human A549 cells assessed as reduction in cell viability using compound addition to cell culture cells in lag phase of growth and incubated for 48 hrs by MTT assay. The class given is functional, cell-based. Particulars: Homo sapiens, A549, 48 h; read-out: IC50.
The test system of assay [6] is A549. The assay is described as follows: Cytotoxicity against human A549 cells assessed as reduction in cell viability using compound addition to cell culture cells in log phase of growth and incubated for 48 hrs by MTT assay. The class given is functional, cell-based. Particulars: Homo sapiens, A549, 48 h; read-out: IC50.
Assay [7] relates to MCF7. The assay is described as follows: Cytotoxicity against human MCF7 cells assessed as reduction in cell viability using compound addition to cell culture cells in log phase of growth and incubated for 48 hrs by MTT assay. The class given is functional, cell-based. Particulars: Homo sapiens, MCF7, 48 h; read-out: IC50.
Assay [8] deals with Vero. In words: Cytotoxicity against African green monkey Vero cells assessed as reduction in cell viability using compound addition to cell culture cells in lag phase of growth and incubated for 48 hrs by MTT assay. The format is cell-based, Chlorocebus sabaeus. Particulars: Chlorocebus sabaeus, Vero, 48 h; read-out: IC50.

Where only a bound is given, the exact number is not on record here.

One may read the IC50 as the concentration at which inhibition is half-maximal. For `C=C1C(=O)O[C@@H]([C@@H](C)[C@H]2CC[C@H]3[C@@H]4C[C@H]5O[C@]56[C@@H](O)[C@@H](OC)CC(=O)[C@]6(C)[C@H]4CC[C@]23C)C=C1C`, the IC50 with Vero [1], with HeLa [2], in the assay on MCF7 [3], in the assay with HeLa [4], in the assay on A549 [5] and with A549 [6] was more than 40 µM throughout. In addition, the IC50 in the assay with MCF7 [7] is 23 µM; in the assay on Vero [8], more than 40 µM.
Turning to `CO[C@H]1CC(=O)[C@]2(C)[C@H]3CC[C@]4(C)[C@@H]([C@H](C)[C@H]5CC(C)=C(CO)C(=O)O5)CC[C@H]4[C@@H]3C[C@H]3O[C@]32[C@H]1O`, the IC50 in the assay with Vero [1], with HeLa [2], in the assay with MCF7 [3], in the assay on HeLa [4], in the assay on A549 [5] and with A549 [6] was more than 40 µM throughout. The IC50 in the assay on MCF7 [7] and with Vero [8] was more than 40 µM in each case.
`CC1=C(COC(=O)C(C)(C)C)C(=O)O[C@@H]([C@@H](C)[C@H]2CC[C@H]3[C@@H]4C[C@H]5O[C@]56C(=O)C=CC(=O)[C@]6(C)[C@H]4CC[C@]23C)C1`: the IC50 with Vero [1] stood at 1 µM; in the assay on HeLa [2], 1.9 µM; in the assay with MCF7 [3] it was 1 µM; with HeLa [4], 4 µM; with A549 [5], 3.7 µM; in the assay with A549 [6], 2.3 µM. Moreover, the IC50 in the assay on MCF7 [7] was 1.2 µM; in the assay on Vero [8] it was 4.1 µM.
On to `COC(=O)CCC(=O)OCC1=C(C)C[C@H]([C@@H](C)[C@H]2CC[C@H]3[C@@H]4C[C@H](Cl)[C@]5(O)[C@@H](OC(=O)CCC(=O)OC)C=CC(=O)[C@]5(C)[C@H]4CC[C@]23C)OC1=O`, for which the IC50 stood at 4.1 µM in the assay on Vero [1]; 8 µM with HeLa [2]; 5.5 µM with MCF7 [3]; 14 µM with HeLa [4]; 7.8 µM in the assay with A549 [5]; 8.9 µM with A549 [6]. Also, the results for the half-inhibitory concentration (IC50) in the assay on MCF7 [7] and in the assay with Vero [8] were 4.8 µM and 3.9 µM, respectively.
For the compound `CC1=C(CCl)C(=O)O[C@@H]([C@@H](C)[C@H]2CC[C@H]3[C@@H]4C[C@H]5O[C@]56[C@H](Cl)C=CC(=O)[C@]6(C)[C@H]4CC[C@]23C)C1`, the half-inhibitory concentration (IC50) stood at 3.1 µM with Vero [1]; 7.9 µM in the assay with HeLa [2]; 4.1 µM in the assay with MCF7 [3]; 3.1 µM in the assay with HeLa [4]; 9.6 µM with A549 [5]; 18.1 µM in the assay on A549 [6]. Also, the IC50 worked out at 4.8 µM with MCF7 [7] and 1.9 µM in the assay on Vero [8].
With `CC1=C(C)C(=O)O[C@@H]([C@@H](C)[C@H]2CC[C@H]3[C@@H]4C[C@H]5O[C@]56[C@@H](O)CCC(=O)[C@]6(C)[C@H]4CC[C@]23C)C1`, the IC50 with Vero [1], in the assay on HeLa [2], in the assay with MCF7 [3], in the assay with HeLa [4], in the assay on A549 [5] and with A549 [6] was more than 40 µM throughout. Moreover, the IC50 in the assay on MCF7 [7] and with Vero [8] was more than 40 µM in each case.
In the case of `CC1=C(CO[Si](C)(C)C(C)(C)C)C(=O)O[C@@H]([C@@H](C)[C@H]2CC[C@H]3[C@@H]4C[C@H](O)[C@]5(O)[C@@H](O)C=CC(=O)[C@]5(C)[C@H]4CC[C@]23C)C1`, the half-maximal inhibitory concentration (IC50) with Vero [1] was found to be 7.6 µM; with HeLa [2], 12 µM; in the assay with MCF7 [3], 7.5 µM; in the assay on HeLa [4] it was 14.8 µM; in the assay with A549 [5] it was 14.2 µM; in the assay on A549 [6] it was 10 µM. The IC50 is 5.6 µM in the assay with MCF7 [7] and 7.9 µM in the assay with Vero [8].
Turning to `C=CCOC(=O)/C(CO)=C(C)\C=C\[C@@H](C)[C@H]1CC[C@H]2[C@@H]3C[C@H]4O[C@]45[C@@H](O)C=CC(=O)[C@]5(C)[C@H]3CC[C@]12C`, the IC50 was 4.7 µM in the assay on Vero [1]; 7.1 µM in the assay on HeLa [2]; 2.4 µM in the assay on MCF7 [3]; 4.2 µM with HeLa [4]; 7.9 µM in the assay with A549 [5]; 8.3 µM in the assay on A549 [6]. Moreover, the IC50 was 2.4 µM in the assay on MCF7 [7] and 2.2 µM in the assay on Vero [8].
As for `CC1=C(COC(=O)c2ccc(Br)cc2)C(=O)O[C@@H]([C@@H](C)[C@H]2CC[C@H]3[C@@H]4C[C@H]5O[C@]56[C@@H](O)C=CC(=O)[C@]6(C)[C@H]4CC[C@]23C)C1`, the IC50 in the assay on Vero [1] is 0.7 µM; in the assay on HeLa [2], 3.8 µM; in the assay on MCF7 [3], 1 µM; in the assay on HeLa [4] it was 1.2 µM; with A549 [5], 2.9 µM; with A549 [6], 4.2 µM. Moreover, the IC50 with MCF7 [7] is 2.3 µM; in the assay on Vero [8], 0.5 µM.
For `CCC(=O)OCC1=C(C)C[C@H]([C@@H](C)[C@H]2CC[C@H]3[C@@H]4C[C@H]5O[C@]56C(=O)C=CC(=O)[C@]6(C)[C@H]4CC[C@]23C)OC1=O`, the IC50 in the assay with Vero [1] was 1.1 µM; with HeLa [2], 6.8 µM; with MCF7 [3], 6 µM; in the assay with HeLa [4], 4.7 µM; in the assay with A549 [5] it was 4.2 µM; in the assay on A549 [6], 8.3 µM. The figures for the IC50 in the assay on MCF7 [7] and in the assay on Vero [8] were 2.3 µM and 3.8 µM, respectively.
Consider `CC1=C(C=O)C(=O)O[C@@H]([C@@H](C)[C@H]2CC[C@H]3[C@@H]4C[C@H]5O[C@]56C(=O)C=CC(=O)[C@]6(C)[C@H]4CC[C@]23C)C1`, for which the IC50 amounted to 13.4 µM in the assay with Vero [1]; 18.5 µM with HeLa [2]; 8.9 µM in the assay on MCF7 [3]; 12.3 µM with HeLa [4]; 16.9 µM in the assay with A549 [5]; 16.1 µM in the assay with A549 [6]. The IC50 in the assay on MCF7 [7] is 11 µM; in the assay with Vero [8], 12.8 µM.
On to `CC1=C(CO)C(=O)O[C@@H]([C@@H](C)[C@H]2CC[C@H]3[C@@H]4C[C@H]5O[C@]56[C@@H](O)[C@@H](NCc5ccccc5)CC(=O)[C@]6(C)[C@H]4CC[C@]23C)C1`, for which the half-maximal inhibitory concentration (IC50) in the assay with Vero [1] amounted to 7.8 µM; in the assay with HeLa [2], 11 µM; with MCF7 [3] it was 7.2 µM; with HeLa [4] it was 8.5 µM; in the assay on A549 [5] it was 10 µM; in the assay with A549 [6], 13.8 µM. Besides, the IC50 in the assay with MCF7 [7] came out at 6.6 µM; in the assay on Vero [8] it was 13.1 µM.
On to `CO[C@H]1C=CC(=O)[C@]2(C)[C@H]3CC[C@]4(C)[C@@H]([C@H](C)[C@H]5CC(C)=C(CO)C(=O)O5)CC[C@H]4[C@@H]3C[C@H]3O[C@]132`, for which the IC50 with Vero [1] amounted to 1.5 µM; with HeLa [2] it was 3.8 µM; in the assay on MCF7 [3], 1.1 µM; in the assay with HeLa [4], 2.1 µM; in the assay on A549 [5], 4 µM; in the assay on A549 [6] it was 4.4 µM. The values for the IC50 in the assay with MCF7 [7] and in the assay with Vero [8] were 1.7 µM and 0.9 µM, respectively.
With `CC1=C(COC(=O)c2ccoc2)C(=O)O[C@@H]([C@@H](C)[C@H]2CC[C@H]3[C@@H]4C[C@H](Cl)[C@]5(O)[C@@H](O)C=CC(=O)[C@]5(C)[C@H]4CC[C@]23C)C1`, the IC50 was 31.2 µM in the assay on Vero [1]; more than 40 µM in the assay on HeLa [2]; 33.5 µM with MCF7 [3]; more than 40 µM in the assay with HeLa [4]; more than 40 µM in the assay with A549 [5]; more than 40 µM in the assay on A549 [6]. Besides, the IC50 was found to be 28.6 µM in the assay with MCF7 [7] and 30.6 µM with Vero [8].
